The text below walks through data of a melting point compilation (Tetko et al.; mined from patent text by program, amines drawn as free bases though some values may be those of a salt).

The melting point is the temperature of the solid-liquid transition.

Structures are written as SMILES.

As for `Brc1ccc2[nH]cc(Cc3cccnc3)c2c1`, the melting point came to 122 °C. The value for `CC(=O)c1ccc(Cl)nc1` was 101 to 102 °C; that for `N/C(=C1/Sc2ccccc2C1=O)c1ccccc1C(F)(F)F` was 148 to 149 °C; that for `CC(C(=O)O)(c1ccccc1)c1ccc(O)cc1` (centres undefined) was 136 to 137 °C.

With `COc1ccc(C2(C#Cc3ccncc3)CCC(=O)CC2)cc1OC1CCCC1`, the melting point lay within 88 to 89 °C. The figure for `CCOC(=O)C1C(=C=S)NCC1CCc1ccc(C(=O)O)cc1` (centres undefined) is 145 to 148 °C.

Take `COc1ccc(CNC(=O)c2cc3c(=O)n(CC#N)c(=O)n(C)c3s2)cc1`: the melting point lay in the range of 180 to 183 °C.

On to `NS(=O)(=O)c1cc(Cl)ccc1S`, for which the melting point was 142 to 144 °C.

`O=C(O)c1ccc(OC(F)(F)F)cc1Cl`: the melting point was 90.6 to 91.2 °C. The figure for `O=[N+]([O-])C=Cc1ccc(O)c(Br)c1` is 132 to 134 °C.

As to `O=[N+]([O-])C=Cc1cnc2c(OCc3ccccc3)cccn12`, the melting point worked out at 204 °C.

Turning to `O=c1c2c(cc3n1CCCS3(=O)=O)CCCC2`, the melting point lay in the range of 232 to 233 °C. The figure for `OCC1Cc2c(F)ccc(Br)c2O1` (centres undefined) is 40 to 43 °C; for `N#Cc1cccc(C(Cl)(Cl)Cl)c1Cl` it is 106 to 107 °C; for `CCCCC(=O)SCC(Cc1ccccc1)C(=O)Nc1cc(C)cc(C(=O)O)c1` (centres undefined) it is 151 to 153 °C. The value for `CC(C)COC(=O)Nc1cccc(-c2ccnc3c(Br)cnn23)c1` was 90 to 92 °C; that for `CCOC(=O)/C=C/c1ccc(OCCc2nc(-c3cccc(C)c3)oc2C)cc1` was 90 to 91 °C; that for `O=C(Nc1cn2nc(Sc3nnc4ccccn34)ccc2n1)C1CC1` was 193 to 195 °C. The value for `CCCNc1c2ccccc2nc2c1c(C)nn2-c1ccccn1` was 121 to 122 °C; that for `CC(=O)n1cc(O)c2cc(Br)ccc21` was 180 to 182 °C. `COc1ccc2c(c1)NC(=O)C(CCO)O2` (centres undefined) came in with a melting point of 111 to 113 °C. The value for `CC(C)OP(=O)(OC(C)C)c1nc(N)nc(P(=O)(OC(C)C)OC(C)C)n1` was 123 to 124 °C; that for `CS(=O)(=O)Nc1ccc2c(c1)C(=O)CC1(CCN(CCc3ccc(Cl)nc3)CC1)O2` was 213 to 215 °C.

For the compound `COC(=O)C1=C(C)NC(C)=C(C(=O)OCCCC#N)C1c1ccccc1[N+](=O)[O-]` (centres undefined), the melting point fell in the range of 48 to 51 °C.

Turning to `CC(=O)CC(O)c1ccc([N+](=O)[O-])cc1` (centres undefined), the melting point turned out to be 62 °C. The value for `CCCc1ccc(-c2ncc(C#N)cn2)cc1` was 126 °C; that for `COc1ccc(-c2c(O)c3ccc(Cl)cc3[nH]c2=O)cc1OC` was 312 to 314 °C; that for `COc1ccc2[nH]cc([C@H]3CC[C@@H](N4CCN(c5cccc6[nH]ccc56)CC4)CC3)c2c1` was 105 to 108 °C. The figure for `Cc1cc2c(cc1Br)C(C)(C)CCC2(C)C` is 73 °C; for `CON(Cc1cccc(-c2ccc(Cl)cc2)c1)C(=O)c1cn(C)nc1C(F)F` it is 78 to 80 °C; for `CCOC(=O)COc1c(F)cc(S(=O)CCNS(=O)(=O)c2ccc(Cl)cc2)cc1F` (centres undefined) it is 137 to 138 °C. The value for `CC(=O)N(C)C(=O)Oc1cccc2c1OC(C)(C)O2` was 76 to 77 °C; that for `O=C1c2cccc(F)c2C(=O)N1CCN1CCC(c2noc3cc(F)ccc23)CC1` was 142 to 143 °C; that for `Cc1cc(C)c([N+](=O)[O-])cc1NC(=O)CC#N` was 229 to 230 °C.

In the case of `Nc1ncc2cc(-c3c(Cl)cccc3Cl)c(N)nc2n1`, the melting point lay in the range of 325 to 332 °C.

In the case of `COc1ccc2c(c1)c(CC(=O)OCC(=O)O)c(C)n2C(=O)c1ccccc1C(F)(F)F`, the melting point was in the range of 121 to 122 °C. The value for `O=C(O)C1CCc2c(c3cccc(F)c3n2C(=O)c2ccccc2)C1` (centres undefined) was 250 to 251 °C; that for `CC(C)(C)OC(=O)[C@@H](CCCOS(=O)(=O)c1ccc2ccccc2c1)C[C@H](NC(c1ccccc1)(c1ccccc1)c1ccccc1)C(=O)OC(C)(C)C` was 119 °C. The value for `COc1cc(COc2nn(-c3ccc(C(F)(F)F)cc3)cc2/C=C/CO)ccc1OCc1nc(-c2ccccc2)oc1C` was 118 to 119 °C; that for `O=[N+]([O-])c1ccc(CF)cc1[N+](=O)[O-]` was 37.5 to 38.5 °C; that for `CCCCCCCCCCCCCCCCCCOC(=O)N(C)CC(O)C(O)C(O)C(O)CO` (centres undefined) was 85 °C. The figure for `CC(C)(C)CC(C)(C)c1ccc(O)c(-n2nc3ccccc3n2)c1` is 101 to 103 °C; for `O=c1c2ccccc2nnn1CCN1CC=C(c2c[nH]c3ccccc23)CC1` it is 230 °C; for `CCCn1cc(Cc2ccc(C(=O)NS(=O)(=O)c3ccccc3Br)cc2OC)c2cc(CCC(C)C(=O)N(C)C)ccc21` (centres undefined) it is 96 to 99 °C. In the case of `COc1ccc2cc3c(cc2c1)C(=O)NC3=O`, the melting point was greater than 250 °C.

As for `CC(c1ccccc1)C(CS)C(=O)NC(Cc1ccc(O)cc1)C(=O)O` (centres undefined), the melting point is 80 °C. The value for `CC(C)=CCC(C)(C)C(=O)/C=C/[C@@H]1[C@H]2CC(=O)O[C@H]2C[C@H]1OC(=O)c1ccccc1` was 98 °C; that for `C=CC(=O)Oc1cccc(O)c1O` was 92 to 95 °C; that for `CCOC(=O)C1(C(=O)OCC)CCC2(CC1)c1cc(OC)c(OC)cc1CCN2C(=O)OCc1ccccc1` was 101 to 102 °C. The figure for `Cc1ccc(-c2ccc3nnn(Cc4ccc5ncccc5c4)c3n2)s1` is 154 to 156 °C; for `CC(CCCCC(=O)O)C1CCC2C3CCC4CC(O)CCC4(C)C3CC(O)C12C` (centres undefined) it is 191 to 193 °C; for `CCCC1CC(O)N(C(C)=O)C1(C(=O)OCC)C(=O)OCC` (centres undefined) it is 105 to 106 °C. The figure for `CS(=O)(=O)c1ccc(-c2cnn(-c3ccc(F)cc3)c(=O)c2OCCC2CC2)cc1` is 111 to 117 °C; for `CCCCCCCCC#CCC#CCC#CCCCC(=O)NCC(O)CO` (centres undefined) it is 87 °C.

`Cc1cc(C)nc(-n2c(C(=O)Nc3ccc4c(c3)nc(C)n4C)cc3cc(F)ccc32)c1` registered a melting point of 130 to 140 °C. `Oc1cccc(C#Cc2ccc3ccc(Br)cc3n2)c1` returned a melting point of 197 to 199 °C. The value for `CN1CCC(c2c[nH]c3ccc(NC(=O)c4ccccc4F)nc23)CC1` was 125 to 126 °C.

In turn, `CN(C)c1ncnc2c(NC3OC(CO)C(O)C3O)ncnc12` (centres undefined) gave a melting point of 231 °C.

`COC(=O)c1nc2cc(F)ccc2c(O)c1C(=O)OC` yielded a melting point of 228 °C. The figure for `CCCN1Cc2cscc2Nc2ccccc21` is 78 to 79 °C; for `Cc1ccc2nc(C3(c4ccc(S(N)(=O)=O)cc4)C=C(C(F)(F)F)NN3)sc2c1` (centres undefined) it is 257 to 258 °C; for `CC(=O)NCc1ccc2c(Cl)cn(C3CCN(CCc4ccc(F)cc4)CC3)c2c1` it is 101 to 102 °C. The figure for `Cc1ccc(Oc2ccc(Cl)cn2)c(Oc2ccc(Cl)cn2)c1` is 87 to 90 °C; for `CC(=O)Nc1ccc(/C=C\COCCCCCCNCC(O)c2ccc(O)c(CO)c2)cc1` (centres undefined) it is 103 to 108 °C.
